From US4877881A, “Process of preparing pyrazoles, isoxazoles and analogs thereof having activity as 5-lipoxygenase inhibitors” (Warner-Lambert Company, priority 1988, dated 1989)

Tests used:
cyclooxygenase [1] = target: T1, cyclooxygenase (Bos taurus, UniProt O62664); assay: Cyclooxygenase Enzyme Assay, bovine seminal vesicle (BSV), PGE2 formation; assay type: biochemical; settings: bovine seminal vesicle powder; 100 μM arachidonic acid, 20 minutes
T1 construct: The assay consists of incubating 2 mg bovine seminal vesicle powder; from tissue; host or cells: bovine seminal vesicle powder
T1 sequence (O62664 25-600): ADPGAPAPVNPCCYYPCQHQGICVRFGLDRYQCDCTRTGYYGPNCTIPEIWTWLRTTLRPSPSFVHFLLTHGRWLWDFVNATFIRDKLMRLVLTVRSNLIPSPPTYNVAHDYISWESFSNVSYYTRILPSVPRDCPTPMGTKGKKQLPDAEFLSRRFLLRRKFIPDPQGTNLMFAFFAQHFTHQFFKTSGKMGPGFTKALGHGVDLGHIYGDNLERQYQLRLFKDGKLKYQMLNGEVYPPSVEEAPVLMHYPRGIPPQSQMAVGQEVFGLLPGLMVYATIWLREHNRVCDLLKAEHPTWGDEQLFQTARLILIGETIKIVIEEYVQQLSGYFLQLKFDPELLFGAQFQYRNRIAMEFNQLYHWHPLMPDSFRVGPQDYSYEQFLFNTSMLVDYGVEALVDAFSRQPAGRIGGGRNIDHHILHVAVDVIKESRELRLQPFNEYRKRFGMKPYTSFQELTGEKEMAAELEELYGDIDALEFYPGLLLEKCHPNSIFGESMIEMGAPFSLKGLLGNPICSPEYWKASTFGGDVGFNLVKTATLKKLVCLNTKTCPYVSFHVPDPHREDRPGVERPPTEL
Description: Cyclooxygenase Enzyme Assay
Additionally, inhibition of cyclooxygenase is considered a measure of relevance to the pathophysiology of the above noted diseases.
The assay consists of incubating 2 mg bovine seminal vesicle powder with 2 mM epinephrine, 2.5 mM reduced glutathione, 100 μM arachidonic acid, and the test agent for 20 minutes. The reaction mixture is acidified and extracted with ethyl acetate (3×1.0 ml) and the pooled extract is evaporated to dryness using a Speed Vac Concentrator or under a stream of nitrogen. The residue was dissolved in ethanol.

5-lipoxygenase [2] = target: T2, 5-lipoxygenase (Homo sapiens, UniProt P09917); assay: 5-Lipoxygenase Assay Using Isolated Human Leukocytes (5LOA2), 5-HETE formation; assay type: cell-based; settings: inhibition of 5-HETE formation, arachidonic acid 20 μM, A23187 10 μM, read-out: 5-LO(IC50 in μM)
T2 construct: The formation of 5-HETE in human leukocytes is considered a measure of 5-lipoxygenase activity; endogenous in cells; host or cells: leukocytes isolated from fresh human blood
T2 sequence (P09917 1-674): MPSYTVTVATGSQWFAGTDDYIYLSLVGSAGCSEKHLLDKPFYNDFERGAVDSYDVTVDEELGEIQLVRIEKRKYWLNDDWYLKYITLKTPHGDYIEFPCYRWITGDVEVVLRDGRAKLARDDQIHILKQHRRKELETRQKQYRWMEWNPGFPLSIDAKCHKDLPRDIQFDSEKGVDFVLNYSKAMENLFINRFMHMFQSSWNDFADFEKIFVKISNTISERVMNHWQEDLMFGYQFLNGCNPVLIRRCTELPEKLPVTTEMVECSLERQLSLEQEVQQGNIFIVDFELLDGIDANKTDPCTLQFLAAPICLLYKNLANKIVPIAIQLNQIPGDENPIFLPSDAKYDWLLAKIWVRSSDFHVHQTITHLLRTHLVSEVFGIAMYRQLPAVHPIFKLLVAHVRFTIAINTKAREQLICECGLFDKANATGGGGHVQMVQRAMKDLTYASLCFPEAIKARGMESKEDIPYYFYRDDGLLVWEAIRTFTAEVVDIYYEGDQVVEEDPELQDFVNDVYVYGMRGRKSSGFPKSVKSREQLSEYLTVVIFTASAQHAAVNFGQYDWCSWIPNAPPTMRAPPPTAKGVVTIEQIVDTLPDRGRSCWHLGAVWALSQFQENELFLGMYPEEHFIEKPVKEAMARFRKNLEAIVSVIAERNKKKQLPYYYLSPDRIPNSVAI
Description: 5-Lipoxygenase Assay Using Isolated Human Leukocytes (5LOA2)
The formation of 5-HETE in human leukocytes is considered a measure of 5-lipoxygenase activity. The protocol is described in the following.
Fresh heparinized or EDTA treated human blood is mixed with 6% dextran-3% dextrose in isotonic saline in the ratio 0.25 ml dextran solution per 1.0 ml blood. After mixing the blood is allowed to sit at room temperature for about 90 minutes while the RBC's settle. During this period, the plasma is removed with a plastic pipette to nalgens tubes.
The pellet, consisting of leukocytes and erythrocytes, is treated with 10 ml 0.87% ammonium chloride at room temperature for four minutes, lysing the red cells. At the end of four minutes the cells are diluted with a 2x volume of phosphate buffered saline, pH 7.4, and centrifuged for ten minutes. The cells are washed three times with the phosphate buffered saline. Any of the pelleted cell matter which is not easily resuspended is discarded during the washings--the material contains platelets (12-lipoxygenase activity).
After washing, the cells are resuspended in phosphate buffered saline containing 1.0 mM 'calcium and 0.5 mM magnesium. After counting, the cells are diluted to 1.5-2.0×10^7 leukocytes per milliliter.
To each polypropylene reaction tube is added 0.48 ml leukocytes in Ca-Mg phosphate buffered saline, pH 7.4; 1-5 μl test compound dissolved in DMSO and buffer; or DMSO for control tubes.
The tubes preincubate at 37° C. for five minutes.
The reaction is started by adding 20 μl of the following, 0.5 μl, 20 mM arachidonic acid--final concentration=20 μM; 1 μl, 5 mM calcium ionophore A23187--final concentration=10 μM; and 18.5 μl buffer.
The reaction proceeds for five minutes, then is stopped by adding 0.5 ml, 0.5 mM ice-cold Tris buffer, pH 8.0. The tubes are chilled on ice for ten minutes and then extracted three times with a total of 3.5 ml ethyl acetate (3.0 ml removed).
The tubes can be stored at this point. For extended storage, the tubes should be filled with nitrogen.
The ethyl acetate is evaporated with a Sorvall Speed-Vac. The residue is dissolved in ethanol. The tubes can also be stored at this point at -20° C. under nitrogen.
A portion of the ethanol solution is injected into the HPLC system for 5-HETE quantitation.
Injections are made automatically with a Waters WISP 710B. The pump is a Spectra Physics SP8700. […] An RP C-18 column is used. The solvent system is isocratic; the solvent is 70% methanol and 30% 0.01M sodium acetate, pH 5.7, pumped at 1.0 ml/min. […] Using a 15 cm Alltech Nucleosil C-18 5 μM column provides for a sample turnaround time of about 16 minutes.

cyclooxygenase [3] = target: T3, cyclooxygenase (Rattus norvegicus, UniProt Q63921); assay: ARBC Whole Cell Cyclooxygenase Assay in RBL-1 cells (PGF2α RIA); assay type: cell-based; settings: RBL-1 intact cell cyclooxygenase; A23187 5 μM
T3 construct: RBL-1 intact cell cyclooxygenase IC50 values; endogenous in cells; host or cells: RBL-1 rat basophilic leukemia cells (American Type Culture Collection)
T3 sequence (Q63921 27-602): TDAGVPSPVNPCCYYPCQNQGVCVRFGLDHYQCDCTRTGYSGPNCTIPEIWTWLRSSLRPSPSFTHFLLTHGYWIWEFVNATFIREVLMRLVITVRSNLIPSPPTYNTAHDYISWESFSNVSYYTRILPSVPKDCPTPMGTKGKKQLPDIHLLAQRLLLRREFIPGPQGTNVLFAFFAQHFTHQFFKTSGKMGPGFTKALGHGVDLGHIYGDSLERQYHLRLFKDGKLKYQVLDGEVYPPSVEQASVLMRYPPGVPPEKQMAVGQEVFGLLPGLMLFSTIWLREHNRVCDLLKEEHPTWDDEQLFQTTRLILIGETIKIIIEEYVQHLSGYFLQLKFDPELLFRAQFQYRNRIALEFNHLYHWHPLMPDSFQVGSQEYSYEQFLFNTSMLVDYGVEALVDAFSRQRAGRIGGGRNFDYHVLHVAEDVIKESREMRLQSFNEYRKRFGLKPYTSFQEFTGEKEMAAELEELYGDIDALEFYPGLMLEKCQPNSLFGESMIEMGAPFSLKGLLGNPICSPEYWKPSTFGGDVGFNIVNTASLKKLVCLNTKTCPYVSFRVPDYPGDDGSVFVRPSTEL
Description: (§1) ARBL/ARBC Whole Cell 5-Lipoxygenase and Cyclooxygenase Assays
(§2) The rat basophilic leukemia cell line (RBL-1) was obtained from the American Type Culture Collection (Rockville, Md.).
(§3) Radioimmuno assay (RIA) kits of LTB4 and PGF2α were obtained from Amersham (Arlington Heights, Ill.) and Seragen (Boston, Mass.) respectively.
(§4) All tissue culture media were obtained from GIBO (Gran Island, N.Y.).
(§5) RBL-1 cells were grown in culture (suspension) in Eagle's minimum essential medium supplemented with 12% fetal bovine serum and 1:100 antibiotic-antimycotic mixture at 37° C. in an incubator supplied with air-5% carbon dioxide. Cells were harvested by centrifugation. They were washed with cold phosphate buffered saline pH 7.4 (PBS; NaCl, 7.1 g; Na2 HOP4, 1.15 g; KH2 PO4, 0.2 g; and KCl, 0.2 g/L). […] Calcium ionophore A23187 (5 μM) was added and cells were incubated for seven minutes at 37° C. The reaction was stopped by chilling the tubes in ice for ten minutes. Cells were separated by centrifugation and the supernatant was stored at -20°. Aliquots (100 μl) were analyzed for LTB4 and PGF2α using radioimmuno assay kits as provided by the supplier.

5-lipoxygenase [4] = target: T4, 5-lipoxygenase (Rattus norvegicus, UniProt P12527); assay: ARBL Whole Cell 5-Lipoxygenase Assay in RBL-1 cells (LTB4 RIA); assay type: cell-based; settings: RBL-1 intact cell 5-lipoxygenase; A23187 5 μM
T4 construct: ARBL/ARBC Whole Cell 5-Lipoxygenase and Cyclooxygenase Assays; endogenous in cells; host or cells: RBL-1 rat basophilic leukemia cells (American Type Culture Collection)
T4 sequence (P12527 1-673): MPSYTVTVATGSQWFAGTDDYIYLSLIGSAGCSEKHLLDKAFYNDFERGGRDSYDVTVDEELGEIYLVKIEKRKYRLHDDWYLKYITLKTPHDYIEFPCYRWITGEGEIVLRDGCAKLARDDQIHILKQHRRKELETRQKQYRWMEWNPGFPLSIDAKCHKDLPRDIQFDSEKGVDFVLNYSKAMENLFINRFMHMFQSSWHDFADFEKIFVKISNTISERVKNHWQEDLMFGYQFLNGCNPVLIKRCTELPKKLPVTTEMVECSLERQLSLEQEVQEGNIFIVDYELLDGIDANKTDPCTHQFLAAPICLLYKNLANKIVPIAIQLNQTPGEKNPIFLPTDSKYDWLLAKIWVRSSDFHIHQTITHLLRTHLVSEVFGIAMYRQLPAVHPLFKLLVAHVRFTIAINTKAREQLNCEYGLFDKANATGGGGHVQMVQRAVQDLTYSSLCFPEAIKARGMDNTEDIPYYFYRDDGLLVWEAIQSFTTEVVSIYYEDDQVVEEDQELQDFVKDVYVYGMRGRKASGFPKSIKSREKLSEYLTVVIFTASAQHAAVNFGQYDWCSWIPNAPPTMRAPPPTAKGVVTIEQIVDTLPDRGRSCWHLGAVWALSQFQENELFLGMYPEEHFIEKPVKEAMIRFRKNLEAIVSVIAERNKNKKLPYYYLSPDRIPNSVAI
Description: as §1, §2, §3, §4, §5

COc1cc(CCc2cc(CCc3ccc(O)c(OC)c3)[nH]n2)ccc1O [Example 2, 3,5-Bis[β-(4'-hydroxy-3'-methoxyphenyl)ethyl]pyrazole]
IC50 (cyclooxygenase [1]): 67 µM
IC50 (5-lipoxygenase [2]): 53 µM

Oc1ccc(CCc2cc(CCc3ccc(O)cc3)[nH]n2)cc1 [Example 3, 3,5-Bis[β-(4'-hydroxyphenyl)ethyl]pyrazole]
IC50 (cyclooxygenase [1]): 44 µM
IC50 (5-lipoxygenase [2]): 15 µM

COc1cc(C=Cc2cc(-c3ccccc3)[nH]n2)ccc1O [Example 4, 3-[β-(4'-Hydroxy-3'-methoxyphenyl)ethenyl]-5-phenylpyrazole]
IC50 (cyclooxygenase [1]): 40 µM
IC50 (5-lipoxygenase [2]): 4.3 µM

COc1cc(CCc2cc(C)n[nH]2)ccc1O [Example 6, 3-[β-(4'-Hydroxy-3'-methoxyphenyl)ethyl]-5-methylpyrazole]
IC50 (5-lipoxygenase [2]): > 20 µM

COc1ccc(C=Cc2cc(C)[nH]n2)cc1O [Example 8, 3-[β-(4'-Methoxy-3'-hydroxyphenyl)ethenyl]-5-methylpyrazole]
IC50 (5-lipoxygenase [2]): > 20 µM

CCc1cc(C=Cc2ccc(O)c(OC)c2)n[nH]1 [Example 9, 3-[β-(4'-Hydroxy-3'-methoxyphenyl)ethenyl]-5-ethylpyrazole]
IC50 (cyclooxygenase [1]): 56 µM
IC50 (5-lipoxygenase [2]): 7.5 µM

CCOC(=O)c1cc(C=Cc2ccc(O)c(OC)c2)n[nH]1 [Example 10, Ethyl-3-[β-(3-methoxy-4-hydroxyphenyl)ethenyl]-1H-pyrazole-5-carboxylate]
IC50 (cyclooxygenase [3]): 11 µM
IC50 (5-lipoxygenase [4]): 5.2 µM
IC50 (5-lipoxygenase [2]): 18 µM

COc1cc(CCc2cc(CCc3ccc(O)c(OC)c3)on2)ccc1O [Example 12, 3,5-Bis[β-(4'-hydroxy-3'-methoxyphenyl)ethyl]isoxazole]
IC50 (cyclooxygenase [1]): 31 µM
IC50 (5-lipoxygenase [2]): 29 µM
